Active and inactive are the calls of the source.
Legend:
[1] = biological target: T1, DNA repair protein RAD52 homolog (Homo sapiens, UniProt P43351); format: functional, biochemical
T1 sequence (P43351 whole entry): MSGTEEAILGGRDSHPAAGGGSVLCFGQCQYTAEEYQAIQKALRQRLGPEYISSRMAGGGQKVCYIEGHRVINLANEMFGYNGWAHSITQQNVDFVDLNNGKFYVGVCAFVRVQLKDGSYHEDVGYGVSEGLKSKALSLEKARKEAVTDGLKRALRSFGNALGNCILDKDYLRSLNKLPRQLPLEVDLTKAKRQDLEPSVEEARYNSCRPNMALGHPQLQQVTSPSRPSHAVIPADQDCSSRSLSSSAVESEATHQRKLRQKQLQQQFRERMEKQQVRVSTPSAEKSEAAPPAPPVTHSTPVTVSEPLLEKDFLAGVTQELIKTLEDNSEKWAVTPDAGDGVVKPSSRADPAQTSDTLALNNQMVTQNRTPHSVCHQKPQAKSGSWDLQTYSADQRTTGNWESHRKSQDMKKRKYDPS

Insulin-degrading enzyme = biological target: T2, Insulin-degrading enzyme (Homo sapiens, UniProt P14735); assay: Dose Response: Fluorescence polarization-based cell-based high throughput dose response assay for inhibitors of insulin-degrading enzyme (IDE). [Related pubchem assays: 434962 (Primary screen (IDE inhibitors in singlicate)), 449730 (Counterscreen (Cytotoxicity in triplicate)), 435028 (Confirmation (IDE inhibitors in triplicate)), 434984 (Summary …; format: functional
T2 sequence (P14735 whole entry): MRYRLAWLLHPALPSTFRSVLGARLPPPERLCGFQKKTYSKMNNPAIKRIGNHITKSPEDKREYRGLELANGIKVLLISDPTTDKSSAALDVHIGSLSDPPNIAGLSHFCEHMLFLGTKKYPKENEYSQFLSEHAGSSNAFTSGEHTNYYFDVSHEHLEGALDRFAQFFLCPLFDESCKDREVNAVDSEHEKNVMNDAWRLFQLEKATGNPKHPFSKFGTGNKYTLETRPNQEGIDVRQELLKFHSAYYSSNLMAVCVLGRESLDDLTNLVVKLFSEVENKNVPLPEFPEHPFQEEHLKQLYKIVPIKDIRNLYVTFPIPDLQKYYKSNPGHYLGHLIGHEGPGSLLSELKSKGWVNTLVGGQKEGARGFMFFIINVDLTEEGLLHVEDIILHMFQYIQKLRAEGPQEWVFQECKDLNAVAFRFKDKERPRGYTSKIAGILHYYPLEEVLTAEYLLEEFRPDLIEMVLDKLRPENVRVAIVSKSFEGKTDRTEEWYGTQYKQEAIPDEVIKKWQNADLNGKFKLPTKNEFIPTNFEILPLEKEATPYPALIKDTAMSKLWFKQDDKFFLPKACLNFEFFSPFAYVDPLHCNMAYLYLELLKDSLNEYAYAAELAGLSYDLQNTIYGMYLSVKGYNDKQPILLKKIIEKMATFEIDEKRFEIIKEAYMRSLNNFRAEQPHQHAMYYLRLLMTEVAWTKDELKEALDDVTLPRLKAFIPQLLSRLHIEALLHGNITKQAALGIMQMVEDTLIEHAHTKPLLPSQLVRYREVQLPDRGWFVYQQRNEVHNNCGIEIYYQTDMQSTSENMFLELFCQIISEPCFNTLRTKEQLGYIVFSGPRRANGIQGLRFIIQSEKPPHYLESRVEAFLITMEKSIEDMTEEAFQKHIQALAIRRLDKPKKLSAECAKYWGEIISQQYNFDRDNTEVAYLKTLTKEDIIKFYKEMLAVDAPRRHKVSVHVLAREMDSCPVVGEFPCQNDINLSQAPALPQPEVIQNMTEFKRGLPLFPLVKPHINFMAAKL

[2] = Counterscreen for IDE inhibitors: Luminescence-based cell-based high throughput dose response assay to identify compounds that are cytotoxic to HEK cells. [Related pubchem assays: 434962 (Primary screen (IDE inhibitors in singlicate)), 449730 (Counterscreen (Cytotoxicity in triplicate)), 435028 (Confirmation (IDE inhibitors in triplicate)) …; format: functional; settings: HEK293
[3] = viability loss of HPDE-C7K cells – cell-based, fluorescence, HTS, primary screen (AID 431); format: functional; settings: Homo sapiens
[4] = HPDE-C7 pancreatic duct cell viability loss – fluorescence, HTS (AID 430); format: functional, cell-based; settings: Homo sapiens
Protein Rev = Protein Rev (Human immunodeficiency virus type 1 group M subtype B (isolate WMJ22)(HIV-1), UniProt P05866); assay: inhibitors of Rev protein–RRE RNA complex – biochemical, protein-RNA interaction, dose response (AID 842); design: species or system Human immunodeficiency virus 1
Protein Rev, sequence (P05866 whole entry): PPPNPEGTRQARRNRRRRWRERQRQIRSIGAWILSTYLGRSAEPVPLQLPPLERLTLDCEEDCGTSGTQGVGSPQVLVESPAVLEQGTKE

[5] = biological target: Neuropeptides B/W receptor type 1 (Homo sapiens, UniProt P48145); assay: Fluorescence-based dose response cell-based high throughput screening assay to identify antagonists of the G-protein coupled receptor 7 (GPR7). [Related pubchem assays: 1952 (Screening assay (GPR7 antagonists).), 1880 (Summary AID.)]; format: functional
Neuropeptides B/W receptor type 1, sequence (P48145 whole entry): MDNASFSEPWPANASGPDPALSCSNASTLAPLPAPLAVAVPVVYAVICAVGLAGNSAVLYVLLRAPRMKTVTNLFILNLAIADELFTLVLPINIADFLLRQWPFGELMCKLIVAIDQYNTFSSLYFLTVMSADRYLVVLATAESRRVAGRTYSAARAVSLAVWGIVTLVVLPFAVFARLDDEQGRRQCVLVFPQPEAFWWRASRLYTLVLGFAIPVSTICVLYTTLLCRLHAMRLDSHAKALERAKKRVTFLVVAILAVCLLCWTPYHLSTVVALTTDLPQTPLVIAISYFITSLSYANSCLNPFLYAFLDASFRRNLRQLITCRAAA

[6] = HEK-293T viability loss after treatment – luminescence, T-cell screen hits, cytotoxicity control for TCR NF-kB inhibitor project, dose response (AID 489026); format: functional, cell-based;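 note: cells exposed to compound about 14 hours before the viability readout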
[7] = biological target: Melanin-concentrating hormone receptor 1 (Homo sapiens, UniProt Q99705); assay: Fluorescence-based counterscreen for antagonists of the G-protein coupled receptor 7 (GPR7): cell-based high throughput dose response assay to identify antagonists of the melanin-concentrating hormone receptor 1 (MCHR1).; format: functional
Melanin-concentrating hormone receptor 1, sequence (Q99705 whole entry): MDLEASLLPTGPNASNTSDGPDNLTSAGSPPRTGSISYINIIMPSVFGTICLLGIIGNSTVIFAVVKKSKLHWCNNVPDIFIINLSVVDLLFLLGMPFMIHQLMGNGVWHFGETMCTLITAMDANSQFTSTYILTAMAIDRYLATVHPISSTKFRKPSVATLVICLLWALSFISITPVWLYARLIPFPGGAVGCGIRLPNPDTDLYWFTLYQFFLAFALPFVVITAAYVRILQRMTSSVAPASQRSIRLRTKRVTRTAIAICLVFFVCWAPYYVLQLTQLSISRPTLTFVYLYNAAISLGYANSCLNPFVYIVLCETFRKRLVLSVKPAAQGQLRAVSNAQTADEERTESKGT

[8] = biological target: T3, Heat shock factor protein 1 (Mus musculus, UniProt P38532); assay: decrease of HSF1-responsive luciferase luminescence – cell-based, NIH3T3, dose retest, confirmation (AID 2382); format: functional;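 note: NIH3T3 fibroblasts with HSF1-driven luciferase reporter stressed by proteasome inhibitor MG132; luminescence from HSF1-driven luciferase expression after 8 hours of MG132 stress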
T3 sequence (P38532 whole entry): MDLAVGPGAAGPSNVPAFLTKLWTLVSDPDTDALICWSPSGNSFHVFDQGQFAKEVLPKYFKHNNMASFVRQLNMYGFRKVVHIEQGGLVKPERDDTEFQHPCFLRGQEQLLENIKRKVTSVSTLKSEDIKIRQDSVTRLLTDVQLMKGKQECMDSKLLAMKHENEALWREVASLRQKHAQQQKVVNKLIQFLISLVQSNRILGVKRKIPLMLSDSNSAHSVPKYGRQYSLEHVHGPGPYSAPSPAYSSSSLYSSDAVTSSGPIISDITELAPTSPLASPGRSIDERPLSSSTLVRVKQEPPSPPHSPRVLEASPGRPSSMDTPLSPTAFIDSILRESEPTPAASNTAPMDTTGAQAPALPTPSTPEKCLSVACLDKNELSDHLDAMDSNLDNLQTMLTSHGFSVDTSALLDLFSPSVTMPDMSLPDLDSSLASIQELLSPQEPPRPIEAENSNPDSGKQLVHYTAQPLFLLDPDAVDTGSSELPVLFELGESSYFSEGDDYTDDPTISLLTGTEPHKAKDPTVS

Bcl-2-like protein 10 = biological target: T4, Bcl-2-like protein 10 (Homo sapiens, UniProt Q9HD36); assay: Concentration-response of Bcl-B inhibitors by biochemical FP with TR3 (AID 1243); format: functional
T4 sequence (Q9HD36 whole entry): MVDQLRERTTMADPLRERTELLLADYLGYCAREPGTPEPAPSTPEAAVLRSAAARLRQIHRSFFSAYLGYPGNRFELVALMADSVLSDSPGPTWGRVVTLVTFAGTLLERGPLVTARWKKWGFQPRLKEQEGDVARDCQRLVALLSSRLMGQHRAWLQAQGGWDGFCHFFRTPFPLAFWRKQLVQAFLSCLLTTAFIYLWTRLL

[9] = CCR5-tropic HIV-1 fusion blockers – cell-based, CCR5-tropic Env, dose response (AID 2279); format: functional
[10] = biological target: Induced myeloid leukemia cell differentiation protein Mcl-1 (Homo sapiens, UniProt Q07820); format: functional
Induced myeloid leukemia cell differentiation protein Mcl-1, sequence (Q07820 whole entry): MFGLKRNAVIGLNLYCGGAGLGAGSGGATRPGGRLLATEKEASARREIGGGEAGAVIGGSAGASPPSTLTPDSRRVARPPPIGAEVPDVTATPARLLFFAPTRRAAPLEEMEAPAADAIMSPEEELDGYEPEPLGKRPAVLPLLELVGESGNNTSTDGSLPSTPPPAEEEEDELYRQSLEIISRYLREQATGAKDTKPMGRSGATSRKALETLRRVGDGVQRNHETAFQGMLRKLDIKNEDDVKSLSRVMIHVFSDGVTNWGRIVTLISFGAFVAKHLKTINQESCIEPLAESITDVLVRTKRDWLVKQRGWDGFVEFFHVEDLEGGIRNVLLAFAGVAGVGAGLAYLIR

Vero = assay: viability of Vero cells under compound – cytotoxicity control for flavivirus capping enzyme inhibitors (AID 588742); format: functional; settings: Chlorocebus sabaeus
Genome polyprotein = Genome polyprotein (dengue virus type 2, UniProt P29990); assay: flavivirus cap methylation enzyme inhibition – biochemical, confirmation dose response, primary screen (AID 588689); format: functional
Genome polyprotein, sequence (P29990 2492-3391 limits assumed): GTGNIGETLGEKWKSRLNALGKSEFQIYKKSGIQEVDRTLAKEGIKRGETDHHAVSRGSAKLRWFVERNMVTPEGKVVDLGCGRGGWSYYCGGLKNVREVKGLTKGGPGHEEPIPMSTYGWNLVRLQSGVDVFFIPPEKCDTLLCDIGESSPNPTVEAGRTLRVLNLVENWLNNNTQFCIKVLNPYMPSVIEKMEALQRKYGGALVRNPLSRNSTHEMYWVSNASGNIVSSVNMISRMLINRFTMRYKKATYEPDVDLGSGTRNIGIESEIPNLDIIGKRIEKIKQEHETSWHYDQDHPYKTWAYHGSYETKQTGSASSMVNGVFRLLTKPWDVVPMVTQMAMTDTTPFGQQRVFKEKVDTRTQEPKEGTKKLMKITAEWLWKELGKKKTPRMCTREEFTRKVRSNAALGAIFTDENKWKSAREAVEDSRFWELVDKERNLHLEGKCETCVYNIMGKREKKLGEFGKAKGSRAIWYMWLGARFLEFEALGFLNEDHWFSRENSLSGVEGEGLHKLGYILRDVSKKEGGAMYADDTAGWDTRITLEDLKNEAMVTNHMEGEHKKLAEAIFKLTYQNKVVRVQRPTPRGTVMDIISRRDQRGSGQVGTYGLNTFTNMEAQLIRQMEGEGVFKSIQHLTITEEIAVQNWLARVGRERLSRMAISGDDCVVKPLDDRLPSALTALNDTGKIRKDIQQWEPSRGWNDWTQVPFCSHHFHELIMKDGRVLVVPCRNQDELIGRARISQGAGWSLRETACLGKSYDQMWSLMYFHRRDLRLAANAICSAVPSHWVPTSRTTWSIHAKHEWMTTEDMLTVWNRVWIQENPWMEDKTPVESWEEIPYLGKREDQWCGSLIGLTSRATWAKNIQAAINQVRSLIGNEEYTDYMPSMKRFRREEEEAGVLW

[11] = biological target: FAD-linked sulfhydryl oxidase ALR (Homo sapiens, UniProt P55789); assay: ALR-catalysed DTT oxidation blockers – biochemical, H2O2 detection, luminescence, cherry-pick, dose response (AID 493248)
FAD-linked sulfhydryl oxidase ALR, sequence (P55789 whole entry): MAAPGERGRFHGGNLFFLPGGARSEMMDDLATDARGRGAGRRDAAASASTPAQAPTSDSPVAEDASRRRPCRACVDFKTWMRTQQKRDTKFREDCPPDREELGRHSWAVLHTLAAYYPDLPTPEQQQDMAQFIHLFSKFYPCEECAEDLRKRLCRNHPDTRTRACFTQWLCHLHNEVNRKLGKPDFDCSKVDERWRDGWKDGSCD

[12] = biological target: G2/mitotic-specific cyclin-B1 (Homo sapiens, UniProt P14635); assay: Counterscreen assay for inhibitors of Wee1 degradation: dose response cell-based assay to identify inhibitors of cyclin B degradation. [Related pubchem assays: 1410, 1321 ]; format: functional
G2/mitotic-specific cyclin-B1, sequence (P14635 whole entry): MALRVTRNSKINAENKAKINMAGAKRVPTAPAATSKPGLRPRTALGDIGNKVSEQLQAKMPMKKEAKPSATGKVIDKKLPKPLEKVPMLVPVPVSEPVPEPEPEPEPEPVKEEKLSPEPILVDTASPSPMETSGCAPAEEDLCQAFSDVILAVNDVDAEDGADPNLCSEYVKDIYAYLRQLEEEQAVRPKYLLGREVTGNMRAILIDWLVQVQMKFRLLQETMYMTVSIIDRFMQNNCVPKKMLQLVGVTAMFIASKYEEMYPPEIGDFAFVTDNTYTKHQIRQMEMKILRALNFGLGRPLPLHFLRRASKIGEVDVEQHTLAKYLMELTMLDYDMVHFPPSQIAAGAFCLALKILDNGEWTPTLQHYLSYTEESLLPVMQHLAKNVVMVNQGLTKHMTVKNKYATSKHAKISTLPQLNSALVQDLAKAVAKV

Beta-galactosidase = Beta-galactosidase (Escherichia coli, UniProt Q8VNN2); assay: Dose response counterscreen for EBI2 assay utilizing the enzyme, b-galactosidase.; format: functional
Beta-galactosidase, sequence (Q8VNN2 whole entry): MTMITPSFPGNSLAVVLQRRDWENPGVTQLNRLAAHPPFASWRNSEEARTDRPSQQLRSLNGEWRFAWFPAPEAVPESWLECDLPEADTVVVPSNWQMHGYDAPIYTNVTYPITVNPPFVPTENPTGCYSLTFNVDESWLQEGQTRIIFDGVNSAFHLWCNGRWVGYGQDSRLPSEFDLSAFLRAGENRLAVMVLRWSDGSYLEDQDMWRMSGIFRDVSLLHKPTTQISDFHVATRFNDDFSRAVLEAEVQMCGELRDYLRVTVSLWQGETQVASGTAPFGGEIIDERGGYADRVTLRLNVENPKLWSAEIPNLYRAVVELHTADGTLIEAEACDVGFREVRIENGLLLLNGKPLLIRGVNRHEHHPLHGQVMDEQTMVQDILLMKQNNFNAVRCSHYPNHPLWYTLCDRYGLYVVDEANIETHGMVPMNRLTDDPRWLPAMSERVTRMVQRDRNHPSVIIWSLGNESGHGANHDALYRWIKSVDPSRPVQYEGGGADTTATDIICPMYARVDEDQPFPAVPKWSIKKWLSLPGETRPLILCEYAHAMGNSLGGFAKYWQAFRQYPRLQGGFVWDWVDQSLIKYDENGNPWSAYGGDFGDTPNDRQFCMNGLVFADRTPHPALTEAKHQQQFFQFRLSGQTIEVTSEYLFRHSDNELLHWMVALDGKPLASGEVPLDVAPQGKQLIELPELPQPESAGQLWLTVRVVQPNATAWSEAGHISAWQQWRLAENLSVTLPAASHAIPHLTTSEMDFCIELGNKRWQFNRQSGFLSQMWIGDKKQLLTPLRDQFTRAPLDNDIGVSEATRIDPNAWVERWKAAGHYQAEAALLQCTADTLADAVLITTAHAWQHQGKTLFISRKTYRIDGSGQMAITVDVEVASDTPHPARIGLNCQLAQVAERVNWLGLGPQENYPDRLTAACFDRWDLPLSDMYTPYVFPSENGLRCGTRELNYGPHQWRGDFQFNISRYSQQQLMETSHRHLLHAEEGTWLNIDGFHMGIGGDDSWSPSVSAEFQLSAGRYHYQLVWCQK

Wee1-like protein kinase = Wee1-like protein kinase (Homo sapiens, UniProt P30291); assay: Dose Response Cell-based Assay for Inhibitors of Wee1 Degradation. [Related pubchem assays: 1410, 1321 ]; format: functional
Wee1-like protein kinase, sequence (P30291 whole entry): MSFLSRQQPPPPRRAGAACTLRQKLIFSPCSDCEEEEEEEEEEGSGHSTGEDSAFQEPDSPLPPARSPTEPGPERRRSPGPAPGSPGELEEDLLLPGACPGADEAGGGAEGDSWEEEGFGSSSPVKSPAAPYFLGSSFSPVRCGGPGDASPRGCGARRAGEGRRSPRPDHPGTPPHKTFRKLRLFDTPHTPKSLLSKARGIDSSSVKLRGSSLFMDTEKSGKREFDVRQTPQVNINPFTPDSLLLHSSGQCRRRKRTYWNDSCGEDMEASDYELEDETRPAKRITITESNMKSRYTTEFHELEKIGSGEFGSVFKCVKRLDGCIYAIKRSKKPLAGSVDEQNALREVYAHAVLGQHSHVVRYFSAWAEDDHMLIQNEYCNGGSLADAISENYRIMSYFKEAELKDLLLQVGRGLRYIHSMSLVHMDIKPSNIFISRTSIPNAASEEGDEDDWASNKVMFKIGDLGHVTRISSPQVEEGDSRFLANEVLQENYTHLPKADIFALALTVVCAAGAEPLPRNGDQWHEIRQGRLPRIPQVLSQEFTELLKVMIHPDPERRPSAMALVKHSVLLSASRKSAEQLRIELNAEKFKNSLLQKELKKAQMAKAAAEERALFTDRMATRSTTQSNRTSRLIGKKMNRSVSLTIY

## CCOC(=O)c1c(C)n(Cc2ccccc2)c2ccc(OCC(O)CNC(C)(C)C)cc12 (centres undefined)
[1]
  AC50: 22 µM (active)
Insulin-degrading enzyme
  IC50: > 55.9 µM (not active)
[2]
  IC50: 14.5 µM (not active)

## CN(C)CC(O)COc1ccc(-c2ccc(C#N)cc2)cc1 (centres undefined)
[3]
  EC50: > 20 µM (not active)
[4]
  EC50: > 20 µM (not active)
Protein Rev
  IC50: > 79.4 µM (not active)

## COc1ccccc1C(=O)N(CCC1CCCN1C)c1nc2ccccc2s1 (centres undefined)
[5]
  IC50: 21.4 µM (not active)
[6]
  IC50: > 80 µM (inactive)
[7]
  IC50: 29.7 µM (not active)
[8]
  EC50: < 0.16 µM (active)

## Cc1cc(C)nc(/N=C(\N)Nc2ccc(N)cc2)n1
Bcl-2-like protein 10
  EC50: 5.38 µM (active)

## CN(C)S(=O)(=O)c1cccc(-c2nn(-c3ccccc3)cc2/C=C2\SC(=S)N(CC(=O)O)C2=O)c1
[9]
  IC50: 48.8 µM (active)
[10]
  IC50: 4.8 µM (active)
Vero
  CC50: > 40 µM (active)
Genome polyprotein
  IC50: 79.5 µM (active)
[11]
  AC50: 15.5 µM (active)

## COC(=O)C1CCN(C(=O)/C=C/c2ccc(OC)cc2)CC1
[12]
  EC50: > 49.7 µM (not active)
Beta-galactosidase
  IC50: > 80 µM (inactive)
Wee1-like protein kinase
  EC50: > 49.7 µM (not active)

— ChEMBL document CHEMBL1201862, “PubChem BioAssay data set” (2004)
